From patent US6632630B2, “Monooxygenase assays” (Aclara Biosciences, Inc., priority 2000, dated 2003)

Experiment: Solubility in water
Type: physicochemical

O=c1ccc2nc3ccc(OCc4ccccc4)cc3oc-2c1 [7-BR, 7-benzyloxyresorufin]
solubility in water: very limited solubility
